We go through 2 compounds from patent publication US20190364896A1, “SYNERGISTIC WEED CONTROL FROM APPLICATIONS OF PYRIDINE CARBOXYLIC ACID HERBICIDES AND ALS INHIBITORS” (Dow AgroSciences LLC, priority 2014, published 2019).

Molecules are shown by their SMILES. Read-outs that look alike come from different tables or passages of the source.

What all share (assay): Postemergence herbicidal activity, greenhouse trial (visual injury 0-100%)
Common to all, as to type: in vivo

Assay [1] has as its system nutsedge (Cyperus esculentus, CYPES). The gist of the method:
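Greenhouse-grown plants at the second to third true leaf stage were sprayed with two-way mixtures in 1.5% v/v Agri-dex crop oil concentrate at 187 L/ha; rates in g ae/ha for component (a) and g ai/ha for component (b). Injury scored visually 0–100% versus solvent-blank controls after 20–22 d, with expected mixture effects from Colby's equation.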

In assay [2] the test system is pigweed (Amaranthus retroflexus, AMARE). To be noted: Amaranthus retroflexus, post-emergence, read-out: % visual injury Obs. The method in brief: (§1)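 Read-out is a visual 0–100% injury score against solvent-blank-sprayed controls, taken 20-22 d after treatment; expected mixture effects came from Colby's equation. Two-way combinations in 1.5% v/v crop oil concentrate were sprayed at 187 L/ha onto plants at the second or third true leaf stage.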

Assay [3] has as its system barnyardgrass (Echinochloa crus-galli, ECHCG). The following applies: Echinochloa crus-galli, post-emergence, read-out: % visual injury Obs. The gist of the method: as §1
Assay [4] relates to chickweed (Stellaria media, STEME). The following applies: Stellaria media, post-emergence, read-out: % visual injury Obs. The gist of the method:
as §1

Assay [5] has as its system wild oat (Avena fatua, AVEFA). The gist of the method:
as §1

For assay [6], the system named is sunflower (Helianthus annuus, HELAN).

For `Nc1c(F)c(-c2ccc3cc[nH]c3c2F)nc(C(=O)O)c1Cl` [Compound 1], the “% visual injury Obs” value was found to be 10% in assay [1] (CYPES, Compound 1 5 g ae/ha); 0% in assay [5] (5 g ae/ha); 0% in assay [5] (10 g ae/ha); 90% in assay [6] (5 g ae/ha); 90% in assay [6] (10 g ae/ha); 70% in assay [6] (HELAN, Compound 1 5 g ae/ha). The pest or weed control at 5 g/ha in assay [1] (Cyperus, post-emergence, 5 g ae/ha, read-out: % visual injury Obs) turned out to be 10%; in assay [2] (5 g ae/ha), 95%; in assay [2] (AMARE, Compound 1 5 g ae/ha), 75%; in assay [3] (ECHCG, Compound 1 5 g ae/ha) it was 50%; in assay [4] (5 g ae/ha), 50%; in assay [4] (STEME, Compound 1 5 g ae/ha) it was 70%. Besides, the pest or weed control at 10 g/ha in assay [2] (10 g ae/ha) was 97%; in assay [2] (AMARE, Compound 1 10 g ae/ha), 97%; in assay [3] (10 g ae/ha) it was 60%; in assay [4] (10 g ae/ha), 70%; in assay [4] (STEME, Compound 1 10 g ae/ha), 70%.
Take `CCCOc1nn(C(=O)NS(=O)(=O)c2ccccc2C(=O)OC)c(=O)n1C` [Propoxycarbazone, propoxycarbazone]: the pest or weed control at […] amounted to 75% in assay [1] (Cyperus, post-emergence, 7.5 g ai/ha, read-out: % visual injury Obs); 95% in assay [3] (7.5 g ai/ha); 50% in assay [4] (7.5 g ai/ha). In addition, the “% visual injury Obs” value in assay [5] (7.5 g ai/ha) and in assay [6] (7.5 g ai/ha) was 85% throughout.
